Earlier results in publication PMC4503980 (Scientific Reports, 2015).

Legend:
nNOS [1] = tested on: nNOS; set-up: method as in PMID 21102461; settings: cited from earlier work
nNOS [2] = tested on: nNOS; set-up: method as in PMID 21102461; settings: cited from earlier work; remark: listed apart in the source
[3] = tested on: animal ischemic stroke models; set-up: method as in PMID 21102461; settings: not when the nNOS gene was knocked out; cited from earlier work
NMDA receptor = tested on: NMDA receptor; set-up: method as in PMID 21102461; settings: cited from earlier work
[4] = tested on: NMDA-induced 3′,5′-cyclic guanosine monophosphate (cGMP) production; set-up: method as in PMID 19732061; settings: hippocampal cultures; cited from earlier work
two mice pain models = tested on: two mice pain models; set-up: method as in PMID 19732061; settings: cited from earlier work
[5] = tested on: 34 targets in a panel of receptors, ion channels, and transporters; set-up: method as in PMID 19732061; settings: cited from earlier work
PSD-95/cypin-interaction = tested on: PSD-95/cypin-interaction; set-up: method as in PMID 19732061; settings: cited from earlier work
nNOS/PSD-95 interaction = tested on: nNOS/PSD-95 interaction; set-up: method as in PMID 19732061; settings: cited from earlier work

| Compound | effect on nNOS expression (nNOS [1]) | effect on nNOS catalytic activity (nNOS [2]) | neuroprotective properties in animal ischemic stroke models [3] | effect on NMDA receptor function (ion flux) (NMDA receptor) | NMDA-induced cGMP production [4] | analgesic properties (two mice pain models) | effect on 34 targets in a panel of receptors, ion channels, and transporters [5] | effect on PSD-95/cypin-interaction (PSD-95/cypin-interaction) | disruption of nNOS/PSD-95 interaction in vitro (nNOS/PSD-95 interaction) |
| --- | --- | --- | --- | --- | --- | --- | --- | --- | --- |
| O=C(O)c1ccc(NCc2cc(Cl)cc(Cl)c2O)cc1O [ZL006, 4-((3,5-Dichloro-2-hydroxybenzyl)amino)-2-hydroxybenzoic acid] | did not affect | did not affect | robust neuroprotective properties | did not affect |  |  |  |  |  |
| Oc1c(Cl)cc(Cl)cc1CNc1ccc2[nH]nnc2c1 [IC87201, 2-((1H-Benzo[d][1–3]triazol-5-ylamino)methyl)-4-6-dichlorophenol] |  |  |  |  | blocked | analgesic properties | did not affect | did not affect | disrupt |
